Source: PMC9909315, “SY-707, an ALK/FAK/IGF1R inhibitor, suppresses growth and metastasis of breast cancer cells” (Acta Biochimica et Biophysica Sinica, 2022)

Legend:
[1] = system: T47D xenograft; test: T47D tumor xenograft study; format: in vivo, nude mice
Experimental: Due to the strong cell growth inhibition potency of SY-707, we firstly evaluate its in vivo anti-cancer activity in T47D xenograft model mice. In this model, mice were orally administered twice a day with vehicle or SY-707 at dose of 100, 50 or 25 mg/kg after tumor size reached 150–300 mm ^3.
Next, we evaluated the combination effects of SY-707 and paclitaxel (an approved drug for breast cancer therapy) in T47D xenograft model. Mice bearing T47D breast cancer were divided randomly into 4 groups: vehicle, SY-707 (100 mg/kg/day), paclitaxel (10 mg/kg/week), and SY-707 plus paclitaxel groups.

[2] = system: 4T1 breast cancer metastasis to the lung; test: Metastasis analysis in vivo (lung nodules, 4T1 model); design: species or system nude mice; settings: 4T1, treatment alone: SY-707 100 mg/kg/day PO; paclitaxel 10 or 20 mg/kg/week IV; 20 days; not statistically different
Experimental: Metastasis was detected in mouse lungs after the mice were sacrificed at the last dosing day. The lungs of each mouse were excised immediately and fixed with 4% paraformaldehyde for 24 h, then the lungs were photographed (three photographs per section per mouse) and the metastatic nodules in the lungs were manually counted and the data was analyzed for compound evaluation.
Mice were inoculated with 4T1 cells in PBS at right and left flanks expect the normal control group ( Figure 6A), SY-707 with or without paclitaxel was administered for 20 days when tumor volumes reached 150–300 mm ^3. The mice were sacrificed on the last day of drug administration, then the lungs were collected and metastatic nodules were counted manually for the evaluation of metastasis of 4T1 breast cancer.
The normal group (A) and the vehicle group which treatment with 20% SBE (B) were control. Mouse lungs were taken at the last day of treatment and fixed with 4% paraformaldehyde for 24 h, then the lungs were photographed and the metastatic nodules were counted manually for further analysis. *P<0.05, **P<0.01.

[3] = system: MCF-7 cells; test: Would healing (migration) assay; format: cell-based; settings: MCF-7, 24 h, vs control
Experimental: (§1) Totally, 5×10 ^5 cells were plated into each well of 6-well plates, and cultured to 70%–80% confluence, then the cell monolayer was gently and slowly scratched with a new 1-mL pipette tip across the center of the well. After scratching, the wells were gently washed with PBS twice to remove the detached cells, and replenished with fresh medium containing indicated concentration of compounds. The treated cells were allowed to grow for additional 24 h, and images were capturedunder a microscope. The migration distance were calculated and analyzed to evaluate the effects of compounds.

[4] = system: T47D cells; test: Would healing (migration) assay; format: cell-based; settings: 24 h, vs control
Experimental: as §1

Structure (SMILES) | tumor growth inhibition rate ([1]; combination study, paclitaxel 10 mg/kg/week alone, 24 days, P<0.05) | number of metastatic nodules in the lungs vs vehicle group [2] | migration distance [3] | migration distance [4] | tumor growth inhibition rate ([1]; reference compound group, 21 days, dose not given)
CC(=O)O[C@H]1C(=O)[C@@]2(C)[C@H]([C@H](OC(=O)c3ccccc3)[C@]3(O)C[C@H](OC(=O)[C@H](O)[C@@H](NC(=O)c4ccccc4)c4ccccc4)C(C)=C1C3(C)C)[C@]1(OC(C)=O)CO[C@@H]1C[C@@H]2O [paclitaxel, reference compound] | 24% | reduced the number of metastatic nodules | – | – | –
CN(c1ncccc1CNc1nc(Nc2ccc3c(c2)CC(=O)N3)ncc1C(F)(F)F)S(C)(=O)=O [PF-562271, reference compound] | – | – | significant reduction of migration | significant reduction of migration | 20%
